In ChEMBL document CHEMBL2440080, “Synthesis and biological evaluation of novel acylhydrazone derivatives as potential antitumor agents” (Bioorg Med Chem, 2013):

What was measured:
Assay type in all cases: functional
[1] = system: CAKI-1; assay: Cytotoxicity against human CAKI-1 cells after 48 hrs by sulforhodamine B assay; settings: CAKI-1, 48 h
[2] = system: T47D; assay: Cytotoxicity against human T47D cells after 48 hrs by sulforhodamine B assay
[3] = system: BT-549; assay: Cytotoxicity against human BT549 cells after 48 hrs by sulforhodamine B assay; settings: BT-549, 48 h
[4] = Cytotoxicity against human Hs 578T cells after 48 hrs by sulforhodamine B assay
[5] = system: MDA-MB-435; assay: Cytotoxicity against human MDA-MB-435 cells after 48 hrs by sulforhodamine B assay; settings: MDA-MB-435, 48 h
[6] = system: NCI/ADR-RES; assay: Cytotoxicity against human NCI/ADR-RES cells after 48 hrs by sulforhodamine B assay
[7] = system: MDA-MB-231; assay: Cytotoxicity against human MDA-MB-231 cells after 48 hrs by sulforhodamine B assay; settings: MDA-MB-231, 48 h
[8] = system: DU-145; assay: Cytotoxicity against human DU145 cells after 48 hrs by sulforhodamine B assay; settings: DU-145, 48 h
[9] = system: MCF7; assay: Cytotoxicity against human MCF7 cells after 48 hrs by sulforhodamine B assay; settings: MCF7, 48 h
[10] = system: UO-31; assay: Cytotoxicity against human UO31 cells after 48 hrs by sulforhodamine B assay; settings: UO-31, 48 h
[11] = system: PC-3; assay: Cytotoxicity against human PC3 cells after 48 hrs by sulforhodamine B assay; settings: PC-3, 48 h
[12] = system: SN12C; assay: Cytotoxicity against human SN12C cells after 48 hrs by sulforhodamine B assay
[13] = system: TK-10; assay: Cytotoxicity against human TK10 cells after 48 hrs by sulforhodamine B assay; settings: TK-10, 48 h
[14] = system: ACHN; assay: Cytotoxicity against human ACHN cells after 48 hrs by sulforhodamine B assay
[15] = system: RXF 393; assay: Cytotoxicity against human RXF393 cells after 48 hrs by sulforhodamine B assay; settings: RXF 393, 48 h
[16] = system: A498; assay: Cytotoxicity against human A498 cells after 48 hrs by sulforhodamine B assay; settings: A498, 48 h
[17] = system: 786-0; assay: Cytotoxicity against human 786-0 cells after 48 hrs by sulforhodamine B assay; settings: 786-0, 48 h
[18] = system: OVCAR-8; assay: Cytotoxicity against human OVCAR8 cells after 48 hrs by sulforhodamine B assay; settings: OVCAR-8, 48 h
[19] = system: SK-OV-3; assay: Cytotoxicity against human SKOV3 cells after 48 hrs by sulforhodamine B assay; settings: SK-OV-3, 48 h
[20] = system: OVCAR-4; assay: Cytotoxicity against human OVCAR4 cells after 48 hrs by sulforhodamine B assay; settings: OVCAR-4, 48 h
[21] = system: OVCAR-5; assay: Cytotoxicity against human OVCAR5 cells after 48 hrs by sulforhodamine B assay; settings: OVCAR-5, 48 h
[22] = system: IGROV-1; assay: Cytotoxicity against human IGROV1 cells after 48 hrs by sulforhodamine B assay; settings: IGROV-1, 48 h
[23] = system: OVCAR-3; assay: Cytotoxicity against human OVCAR3 cells after 48 hrs by sulforhodamine B assay; settings: OVCAR-3, 48 h
[24] = system: UACC-257; assay: Cytotoxicity against human UACC257 cells after 48 hrs by sulforhodamine B assay; settings: UACC-257, 48 h
[25] = system: UACC-62; assay: Cytotoxicity against human UACC62 cells after 48 hrs by sulforhodamine B assay; settings: UACC-62, 48 h
[26] = system: SK-MEL-28; assay: Cytotoxicity against human SK-MEL-28 cells after 48 hrs by sulforhodamine B assay; settings: SK-MEL-28, 48 h
[27] = system: SK-MEL-5; assay: Cytotoxicity against human SK-MEL-5 cells after 48 hrs by sulforhodamine B assay; settings: SK-MEL-5, 48 h
[28] = system: M14; assay: Cytotoxicity against human M14 cells after 48 hrs by sulforhodamine B assay; settings: M14, 48 h
[29] = system: SK-MEL-2; assay: Cytotoxicity against human SK-MEL-2 cells after 48 hrs by sulforhodamine B assay; settings: SK-MEL-2, 48 h
[30] = system: LOX IMVI; assay: Cytotoxicity against human LOXIMVI cells after 48 hrs by sulforhodamine B assay
[31] = system: Malme-3M; assay: Cytotoxicity against human MALME-3M cells after 48 hrs by sulforhodamine B assay
[32] = system: SNB-75; assay: Cytotoxicity against human SNB75 cells after 48 hrs by sulforhodamine B assay; settings: SNB-75, 48 h
[33] = system: U-251; assay: Cytotoxicity against human U251 cells after 48 hrs by sulforhodamine B assay; settings: U-251, 48 h
[34] = system: SF-539; assay: Cytotoxicity against human SF539 cells after 48 hrs by sulforhodamine B assay; settings: SF-539, 48 h
[35] = system: SNB-19; assay: Cytotoxicity against human SNB19 cells after 48 hrs by sulforhodamine B assay; settings: SNB-19, 48 h
[36] = system: SF-295; assay: Cytotoxicity against human SF295 cells after 48 hrs by sulforhodamine B assay; settings: SF-295, 48 h
[37] = system: SW-620; assay: Cytotoxicity against human SW620 cells after 48 hrs by sulforhodamine B assay; settings: SW-620, 48 h
[38] = system: SF-268; assay: Cytotoxicity against human SF268 cells after 48 hrs by sulforhodamine B assay; settings: SF-268, 48 h
[39] = system: HT-29; assay: Cytotoxicity against human HT-29 cells after 48 hrs by sulforhodamine B assay; settings: HT-29, 48 h
[40] = system: KM12; assay: Cytotoxicity against human KM12 cells after 48 hrs by sulforhodamine B assay; settings: KM12, 48 h
[41] = system: HCT-116; assay: Cytotoxicity against human HCT116 cells after 48 hrs by sulforhodamine B assay; settings: HCT-116, 48 h
[42] = system: HCT-15; assay: Cytotoxicity against human HCT15 cells after 48 hrs by sulforhodamine B assay; settings: HCT-15, 48 h
[43] = system: HCC 2998; assay: Cytotoxicity against human HCC2998 cells after 48 hrs by sulforhodamine B assay; settings: HCC 2998, 48 h
[44] = system: NCI-H522; assay: Cytotoxicity against human NCI-H522 cells after 48 hrs by sulforhodamine B assay; settings: NCI-H522, 48 h
[45] = system: COLO 205; assay: Cytotoxicity against human COLO205 cells after 48 hrs by sulforhodamine B assay; settings: COLO 205, 48 h
[46] = system: NCI-H460; assay: Cytotoxicity against human NCI-H460 cells after 48 hrs by sulforhodamine B assay; settings: NCI-H460, 48 h
[47] = system: NCI-H23; assay: Cytotoxicity against human NCI-H23 cells after 48 hrs by sulforhodamine B assay; settings: NCI-H23, 48 h
[48] = system: NCI-H322M; assay: Cytotoxicity against human NCI-H322M cells after 48 hrs by sulforhodamine B assay
[49] = system: HOP-92; assay: Cytotoxicity against human HOP92 cells after 48 hrs by sulforhodamine B assay; settings: HOP-92, 48 h
[50] = system: NCI-H226; assay: Cytotoxicity against human NCI-H226 cells after 48 hrs by sulforhodamine B assay; settings: NCI-H226, 48 h
[51] = Cytotoxicity against human EKVX cells after 48 hrs by sulforhodamine B assay
[52] = system: HOP-62; assay: Cytotoxicity against human HOP62 cells after 48 hrs by sulforhodamine B assay; settings: HOP-62, 48 h
[53] = system: SR; assay: Cytotoxicity against human SR cells after 48 hrs by sulforhodamine B assay
[54] = system: A549; assay: Cytotoxicity against human A549/ATCC cells after 48 hrs by sulforhodamine B assay; settings: A549, 48 h
[55] = system: RPMI-8226; assay: Cytotoxicity against human RPMI8226 cells after 48 hrs by sulforhodamine B assay; settings: RPMI-8226, 48 h
[56] = system: K562; assay: Cytotoxicity against human K562 cells after 48 hrs by sulforhodamine B assay; settings: K562, 48 h
[57] = system: MOLT-4; assay: Cytotoxicity against human MOLT4 cells after 48 hrs by sulforhodamine B assay; settings: MOLT-4, 48 h
[58] = system: CCRF-CEM; assay: Cytotoxicity against human CCRF-CEM cells after 48 hrs by sulforhodamine B assay
[59] = system: HL-60(TB); assay: Cytotoxicity against human HL-60(TB) cells after 48 hrs by sulforhodamine B assay; settings: HL-60, 48 h

SMILES: CCN(CC)c1ccc(/C=N/NC(=O)c2ccc(Nc3ccnc(C(F)(F)F)c3)cc2)c(O)c1
- GI50 [1]: 251 nM
- GI50 [2]: 331 nM
- GI50 [3]: 501 nM
- GI50 [4]: 219 nM
- GI50 [5]: 490 nM
- GI50 [6]: 1000 nM
- GI50 [7]: 398 nM
- GI50 [8]: 501 nM
- GI50 [9]: 295 nM
- GI50 [10]: 57.5 nM
- GI50 [11]: 501 nM
- GI50 [12]: 363 nM
- GI50 [13]: 501 nM
- GI50 [14]: 158 nM
- GI50 [15]: 200 nM
- GI50 [16]: 316 nM
- GI50 [17]: 182 nM
- GI50 [18]: 398 nM
- GI50 [19]: 234 nM
- GI50 [20]: 251 nM
- GI50 [21]: 479 nM
- GI50 [22]: 200 nM
- GI50 [23]: 316 nM
- GI50 [24]: 339 nM
- GI50 [25]: 251 nM
- GI50 [26]: 204 nM
- GI50 [27]: 324 nM
- GI50 [28]: 316 nM
- GI50 [29]: 398 nM
- GI50 [30]: 158 nM
- GI50 [31]: 389 nM
- GI50 [32]: 200 nM
- GI50 [33]: 200 nM
- GI50 [34]: 200 nM
- GI50 [35]: 331 nM
- GI50 [36]: 263 nM
- GI50 [37]: 339 nM
- GI50 [38]: 200 nM
- GI50 [39]: 282 nM
- GI50 [40]: 398 nM
- GI50 [41]: 158 nM
- GI50 [42]: 100 nM
- GI50 [43]: 224 nM
- GI50 [44]: 251 nM
- GI50 [45]: 275 nM
- GI50 [46]: 204 nM
- GI50 [47]: 417 nM
- GI50 [48]: 316 nM
- GI50 [49]: 676 nM
- GI50 [50]: 331 nM
- GI50 [51]: 195 nM
- GI50 [52]: 251 nM
- GI50 [53]: 251 nM
- GI50 [54]: 331 nM
- GI50 [55]: 126 nM
- GI50 [56]: 66.1 nM
- GI50 [57]: 162 nM
- GI50 [58]: 120 nM
- GI50 [59]: 251 nM

SMILES: CCN(CC)c1ccc(/C=N/NC(=O)c2cccc(Nc3ccnc(C(F)(F)F)c3)c2)c(O)c1
- GI50 [1]: 200 nM
- GI50 [2]: 631 nM
- GI50 [3]: 501 nM
- GI50 [4]: 182 nM
- GI50 [5]: 339 nM
- GI50 [6]: 1000 nM
- GI50 [7]: 316 nM
- GI50 [8]: 251 nM
- GI50 [9]: 245 nM
- GI50 [10]: 166 nM
- GI50 [11]: 741 nM
- GI50 [12]: 309 nM
- GI50 [13]: 501 nM
- GI50 [14]: 245 nM
- GI50 [15]: 398 nM
- GI50 [16]: 479 nM
- GI50 [17]: 240 nM
- GI50 [18]: 398 nM
- GI50 [19]: 407 nM
- GI50 [20]: 158 nM
- GI50 [21]: 501 nM
- GI50 [22]: 200 nM
- GI50 [23]: 794 nM
- GI50 [24]: 275 nM
- GI50 [25]: 251 nM
- GI50 [26]: 115 nM
- GI50 [27]: 224 nM
- GI50 [28]: 229 nM
- GI50 [29]: 407 nM
- GI50 [30]: 178 nM
- GI50 [31]: 339 nM
- GI50 [32]: 257 nM
- GI50 [33]: 200 nM
- GI50 [34]: 263 nM
- GI50 [35]: 339 nM
- GI50 [36]: 324 nM
- GI50 [37]: 324 nM
- GI50 [38]: 100 nM
- GI50 [39]: 339 nM
- GI50 [40]: 398 nM
- GI50 [41]: 126 nM
- GI50 [42]: 126 nM
- GI50 [43]: 182 nM
- GI50 [44]: 407 nM
- GI50 [45]: 282 nM
- GI50 [46]: 200 nM
- GI50 [47]: 646 nM
- GI50 [48]: 200 nM
- GI50 [49]: 1000 nM
- GI50 [50]: 372 nM
- GI50 [51]: 224 nM
- GI50 [52]: 251 nM
- GI50 [53]: 200 nM
- GI50 [54]: 389 nM
- GI50 [55]: 158 nM
- GI50 [57]: 195 nM
- GI50 [58]: 141 nM
- GI50 [59]: 316 nM
